Assay results taken from patent US10941136B2, “Quinazoline derivative or its salt and pharmaceutical composition comprising the same” (YUHAN CORPORATION, priority 2016, dated 2021).

What was measured:
Type in all cases: biochemical
PI3Kγ (p120γ)(h) = target: T1, PI3Kγ (p120γ)(h) (Homo sapiens, UniProt P48736); experiment: PI3K-HTRF in vitro enzyme assay, PI3Kγ; settings: enzyme 0.4 μg/ml
T1 construct: purchased Upstate (Millipore Co) #14-558
Protocol: (§1) The compounds of the present invention were tested for the activity of phosphatidylinositol 3-kinase delta (PI3K) by using a PI3K enzyme-homogeneous time resolved fluorescence (PI3K-HTRF) kit, which is available under Upstate™ kit (Millipore Co, Billerica, Mass., USA). This kit system measures indirectly the amount of PIP3 produced via PI3K by detecting competitive inhibition of fluorescence complex formation.
(§2) There were used three kinds of buffer solutions, i.e., reaction buffer, stop solution, and detection solution. The reaction buffer was prepared by diluting Reaction Buffer (provided in Update™ kit) with distilled water 4 times and adding DTT to a concentration of 5 mM. The stop solution was prepared by combining STOP A and B Solutions (provided in Update™ kit) in a ratio of 3:1. The detection solution was prepared by combining Detection Solution A, B and C (provided in Update™ kit) in a ratio of 1:1:18. A substrate solution and an ATP solution were prepared by diluting the 1 mM PIP2 (phosphatidyl inositol 4,5 bi-phosphate) stock solution (provided in Update™ kit) and 10 mM ATP (Sigma-aldrich Co., St. Louis, Mo., USA) stock solution with the reaction buffer to concentrations of 20 μM and 40 μM, respectively. An enzyme solution was prepared by diluting PI3Kδ (#14˜604; Upstate™ kit) with the substrate solution to the concentration of 0.2 μg/ml (final reaction concentration: 0.1 μg/ml).
(§3) The test groups were prepared by dissolving each compound in 100% DMSO at 40× the final concentration and then diluting 10-fold with the reaction buffer. 5 μl of each diluted test group solution was transferred to a 384 well low flange white flat bottom microplate (#3572, Corning Life Sciences, Lowell, Mass., USA). We performed centrifuge (1 minute, 1000 rpm) and shaking for 2 minutes after every solution-adding step in this experiment. Next, 10 μl of the enzyme solution was added to each well. A mixed solution of the substrate solution (10 μl) plus 5 μl of the 100% DMSO diluted solution without test compound (i.e., 10% DMSO solution) was used as a negative control. And also, a mixed solution of enzyme solution (10 μl) plus 5 μl of the 100% DMSO diluted solution without test compound (i.e., 10% DMSO solution) was used as a positive control. This plate was pre-incubated for 10 minutes in a 25° C. incubator. After the pre-incubation, the phosphorylation reaction was induced by adding 5 μl of the ATP solution and the plate was incubated for 30 minutes in a 25° C. incubator. This enzyme reaction was stopped by 5 μl of the stop solution and then 5 μl of the detection solution was added thereto. To obtain enough fluorescence responses, the plate was incubated for 2 hours in a 25° C. incubator protected from light.
(§4) The time-resolved fluorescence resonance energy transfer (TR-FRET) rate was measured (emission wavelength: 665 nm, 620 nm, excitation wavelength: 313 nm) by using a Flexstation3 Micro plate reader (Molecular Devices, USA). TR-FRET Rate was calculated based on the Equation 1 and using these TR-FRET Rates, % inhibition rate of each compound was calculated based on the Equation 2. The IC50 values, i.e., the concentration of a test compound that inhibits 50% of PI3Kδ activity in vitro, are generated by Softmax program (Molecular Devices, USA). TR-FRET Rate=(Signal at 665 nm emission wavelength/Signal at 620 nm emission wavelength)×10000 <Equation 1> % Inhibition Rate=[(TR-FRET Rate of the test group−TR-FRET Rate of the positive control group)/(TR-FRET Rate of the negative control group−TR-FRET Rate of the positive control group)]×100 <Equation 2>
(§5) The compounds of the present invention were assayed for the activities of PI3K subtypes, i.e., PI3Kα, PI3Kβ and PI3Kγ, using the same procedures as in Experimental Example 1. […]

PI3Kβ (p110β/p85α)(h) = target: T2, PI3Kβ (p110β/p85α)(h) (Homo sapiens, UniProt P42338); experiment: PI3K-HTRF in vitro enzyme assay, PI3Kβ; settings: enzyme 0.4 μg/ml
T2 construct: purchased Upstate (Millipore Co) #14-603
T2 sequence (P42338 whole entry): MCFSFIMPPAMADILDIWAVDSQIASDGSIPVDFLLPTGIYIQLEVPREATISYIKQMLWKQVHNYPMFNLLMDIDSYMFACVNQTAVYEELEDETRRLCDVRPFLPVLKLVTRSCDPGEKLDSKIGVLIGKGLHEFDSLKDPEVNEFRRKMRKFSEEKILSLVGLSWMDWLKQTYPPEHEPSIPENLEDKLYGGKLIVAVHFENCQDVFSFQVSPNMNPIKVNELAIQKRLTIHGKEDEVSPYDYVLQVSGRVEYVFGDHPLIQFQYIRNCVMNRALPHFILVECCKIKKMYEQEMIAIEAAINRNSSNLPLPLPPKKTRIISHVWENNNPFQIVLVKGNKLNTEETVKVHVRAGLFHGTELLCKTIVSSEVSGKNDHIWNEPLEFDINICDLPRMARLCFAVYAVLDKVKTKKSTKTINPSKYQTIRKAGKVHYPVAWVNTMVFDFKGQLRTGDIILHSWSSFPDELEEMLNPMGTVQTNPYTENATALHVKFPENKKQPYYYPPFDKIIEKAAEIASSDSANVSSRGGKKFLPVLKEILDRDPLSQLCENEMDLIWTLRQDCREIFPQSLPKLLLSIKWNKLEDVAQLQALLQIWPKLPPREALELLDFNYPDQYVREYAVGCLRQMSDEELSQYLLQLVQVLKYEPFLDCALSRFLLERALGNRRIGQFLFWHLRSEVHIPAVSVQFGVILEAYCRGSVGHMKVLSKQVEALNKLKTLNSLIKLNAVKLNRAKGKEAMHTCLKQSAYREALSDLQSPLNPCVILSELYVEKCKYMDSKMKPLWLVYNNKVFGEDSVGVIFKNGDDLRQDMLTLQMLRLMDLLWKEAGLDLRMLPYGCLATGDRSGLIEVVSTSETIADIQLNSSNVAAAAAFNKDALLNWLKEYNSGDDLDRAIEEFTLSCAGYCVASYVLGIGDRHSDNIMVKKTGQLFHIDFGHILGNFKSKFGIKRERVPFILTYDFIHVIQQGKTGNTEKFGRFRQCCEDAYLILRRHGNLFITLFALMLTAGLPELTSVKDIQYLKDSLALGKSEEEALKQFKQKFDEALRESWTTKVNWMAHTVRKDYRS
T2 sequence (P27986 whole entry partner): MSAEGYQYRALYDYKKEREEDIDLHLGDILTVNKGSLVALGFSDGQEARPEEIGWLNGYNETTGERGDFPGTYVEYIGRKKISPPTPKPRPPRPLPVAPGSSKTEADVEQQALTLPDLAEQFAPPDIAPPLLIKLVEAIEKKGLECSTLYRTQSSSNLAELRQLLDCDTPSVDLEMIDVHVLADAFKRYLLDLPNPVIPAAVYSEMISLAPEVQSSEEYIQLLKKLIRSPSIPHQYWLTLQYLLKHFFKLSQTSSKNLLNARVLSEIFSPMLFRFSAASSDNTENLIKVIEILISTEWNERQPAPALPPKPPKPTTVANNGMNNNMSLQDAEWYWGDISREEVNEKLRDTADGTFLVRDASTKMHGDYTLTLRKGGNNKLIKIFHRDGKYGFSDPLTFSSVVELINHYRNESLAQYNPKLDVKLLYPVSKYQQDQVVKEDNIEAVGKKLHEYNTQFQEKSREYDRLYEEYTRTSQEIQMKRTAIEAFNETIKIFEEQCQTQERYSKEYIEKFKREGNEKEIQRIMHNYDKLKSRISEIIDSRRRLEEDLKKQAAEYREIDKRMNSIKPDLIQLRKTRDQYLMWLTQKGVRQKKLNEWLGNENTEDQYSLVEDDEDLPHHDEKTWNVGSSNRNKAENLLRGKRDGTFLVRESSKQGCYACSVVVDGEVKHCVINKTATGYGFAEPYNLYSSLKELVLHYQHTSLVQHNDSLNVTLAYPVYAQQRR
Protocol: as §1, §2, §3, §4, §5

PI3Kα (p110α/p85α)(h) = target: T3, PI3Kα (p110α/p85α)(h) (Homo sapiens, UniProt P42336); experiment: PI3K-HTRF in vitro enzyme assay, PI3Kα; settings: enzyme 0.1 μg/ml
T3 construct: purchased Upstate (Millipore Co) #14-602
T3 sequence (P42336 whole entry): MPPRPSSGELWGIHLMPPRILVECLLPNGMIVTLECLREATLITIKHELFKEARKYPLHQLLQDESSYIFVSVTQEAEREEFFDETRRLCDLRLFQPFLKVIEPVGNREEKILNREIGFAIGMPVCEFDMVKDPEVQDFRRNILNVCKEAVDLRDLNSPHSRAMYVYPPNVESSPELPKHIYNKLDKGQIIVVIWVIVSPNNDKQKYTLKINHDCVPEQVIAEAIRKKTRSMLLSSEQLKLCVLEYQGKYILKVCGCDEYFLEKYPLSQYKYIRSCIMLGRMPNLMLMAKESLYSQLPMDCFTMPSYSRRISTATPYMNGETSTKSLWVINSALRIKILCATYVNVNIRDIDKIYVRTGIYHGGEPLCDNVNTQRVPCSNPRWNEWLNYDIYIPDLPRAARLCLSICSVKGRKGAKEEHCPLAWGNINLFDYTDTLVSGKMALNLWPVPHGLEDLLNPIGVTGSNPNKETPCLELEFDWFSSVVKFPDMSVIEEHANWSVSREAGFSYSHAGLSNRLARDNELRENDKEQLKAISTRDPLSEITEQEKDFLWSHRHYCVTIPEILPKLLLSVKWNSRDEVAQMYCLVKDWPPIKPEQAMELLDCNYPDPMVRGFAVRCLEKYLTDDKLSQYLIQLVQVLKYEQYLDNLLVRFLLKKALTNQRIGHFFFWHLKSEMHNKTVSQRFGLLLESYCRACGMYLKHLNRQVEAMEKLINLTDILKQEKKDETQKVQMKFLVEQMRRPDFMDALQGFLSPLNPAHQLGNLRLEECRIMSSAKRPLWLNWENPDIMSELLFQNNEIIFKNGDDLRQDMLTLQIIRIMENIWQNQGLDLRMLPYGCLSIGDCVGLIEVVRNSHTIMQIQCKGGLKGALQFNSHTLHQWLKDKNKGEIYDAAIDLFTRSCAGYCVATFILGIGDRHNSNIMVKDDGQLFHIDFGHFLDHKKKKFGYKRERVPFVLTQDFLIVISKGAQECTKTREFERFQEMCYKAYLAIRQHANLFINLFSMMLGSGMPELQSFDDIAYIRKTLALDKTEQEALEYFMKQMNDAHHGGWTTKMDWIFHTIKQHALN
T3 sequence (P27986 whole entry partner): as the sequence (P27986 whole entry partner) above
Protocol: as §1, §2, §3, §4, §5

PI3Kδ (p110δ/p85α)(h) = target: T4, PI3Kδ (p110δ/p85α)(h) (Homo sapiens, UniProt O00329); experiment: PI3K-HTRF in vitro enzyme assay, PI3Kδ; settings: enzyme 0.1 μg/ml
T4 construct: purchased Upstate (Millipore Co, Billerica, Mass., USA) #14˜604
T4 sequence (O00329 whole entry): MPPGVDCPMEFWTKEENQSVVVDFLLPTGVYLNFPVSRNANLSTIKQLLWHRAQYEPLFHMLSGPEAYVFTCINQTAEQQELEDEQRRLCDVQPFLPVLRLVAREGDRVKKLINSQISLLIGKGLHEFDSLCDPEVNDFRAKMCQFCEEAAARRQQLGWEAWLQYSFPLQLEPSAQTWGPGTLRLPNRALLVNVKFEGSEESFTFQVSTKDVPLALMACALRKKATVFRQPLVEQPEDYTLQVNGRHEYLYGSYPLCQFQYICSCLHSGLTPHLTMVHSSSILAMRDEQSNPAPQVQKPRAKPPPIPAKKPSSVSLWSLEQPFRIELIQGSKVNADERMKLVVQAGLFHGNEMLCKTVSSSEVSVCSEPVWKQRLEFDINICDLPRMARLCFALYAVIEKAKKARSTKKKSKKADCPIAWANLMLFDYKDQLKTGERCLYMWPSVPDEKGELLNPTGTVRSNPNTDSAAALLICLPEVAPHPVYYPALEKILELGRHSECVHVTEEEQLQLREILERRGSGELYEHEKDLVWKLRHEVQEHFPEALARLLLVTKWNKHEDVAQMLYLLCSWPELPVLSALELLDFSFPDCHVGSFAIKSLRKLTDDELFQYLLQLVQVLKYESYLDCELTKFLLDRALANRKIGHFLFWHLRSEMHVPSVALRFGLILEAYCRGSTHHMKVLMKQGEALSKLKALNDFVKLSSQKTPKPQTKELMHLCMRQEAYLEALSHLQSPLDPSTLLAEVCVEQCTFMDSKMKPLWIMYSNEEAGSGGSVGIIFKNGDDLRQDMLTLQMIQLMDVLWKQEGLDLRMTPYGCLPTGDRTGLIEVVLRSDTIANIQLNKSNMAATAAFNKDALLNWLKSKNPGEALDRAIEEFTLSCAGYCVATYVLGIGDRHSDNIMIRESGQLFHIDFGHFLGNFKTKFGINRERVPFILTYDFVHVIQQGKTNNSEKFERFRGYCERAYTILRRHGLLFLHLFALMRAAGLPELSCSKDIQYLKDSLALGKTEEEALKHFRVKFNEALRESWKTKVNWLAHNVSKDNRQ
T4 sequence (P27986 whole entry partner): as the sequence (P27986 whole entry partner) above
Protocol: as §1, §2, §3, §4

T1 sequence (P48736 whole entry): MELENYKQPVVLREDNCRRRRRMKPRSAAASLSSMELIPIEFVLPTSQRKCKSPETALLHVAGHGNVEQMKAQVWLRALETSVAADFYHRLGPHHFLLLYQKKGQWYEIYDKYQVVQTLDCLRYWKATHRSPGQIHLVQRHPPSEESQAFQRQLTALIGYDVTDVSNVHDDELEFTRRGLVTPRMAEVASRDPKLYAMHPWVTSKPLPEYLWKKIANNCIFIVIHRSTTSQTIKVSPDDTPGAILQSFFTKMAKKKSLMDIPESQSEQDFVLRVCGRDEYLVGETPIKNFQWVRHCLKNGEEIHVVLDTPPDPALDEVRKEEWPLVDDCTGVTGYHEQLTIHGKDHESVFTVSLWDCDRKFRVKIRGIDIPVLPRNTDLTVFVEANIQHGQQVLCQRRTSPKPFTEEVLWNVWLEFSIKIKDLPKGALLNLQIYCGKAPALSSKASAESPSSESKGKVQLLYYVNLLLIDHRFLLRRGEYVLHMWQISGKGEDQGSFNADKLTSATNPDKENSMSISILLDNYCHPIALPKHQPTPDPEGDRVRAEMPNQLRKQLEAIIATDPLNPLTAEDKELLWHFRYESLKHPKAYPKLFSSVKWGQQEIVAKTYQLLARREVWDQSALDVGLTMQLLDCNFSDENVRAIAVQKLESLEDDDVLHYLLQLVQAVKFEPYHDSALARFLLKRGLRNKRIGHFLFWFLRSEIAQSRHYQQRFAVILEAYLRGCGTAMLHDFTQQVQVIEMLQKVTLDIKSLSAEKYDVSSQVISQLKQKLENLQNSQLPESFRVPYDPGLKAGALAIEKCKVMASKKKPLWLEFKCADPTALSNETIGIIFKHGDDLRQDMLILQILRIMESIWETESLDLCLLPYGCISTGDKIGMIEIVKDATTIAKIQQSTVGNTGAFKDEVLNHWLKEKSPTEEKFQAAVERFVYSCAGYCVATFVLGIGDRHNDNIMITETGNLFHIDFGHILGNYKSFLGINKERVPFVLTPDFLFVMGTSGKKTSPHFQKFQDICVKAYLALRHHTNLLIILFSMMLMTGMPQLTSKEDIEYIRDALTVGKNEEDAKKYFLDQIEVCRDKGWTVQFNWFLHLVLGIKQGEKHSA

SMILES	IC50 (PI3Kγ (p120γ)(h))	IC50 (PI3Kβ (p110β/p85α)(h))	IC50 (PI3Kα (p110α/p85α)(h))	IC50 (PI3Kδ (p110δ/p85α)(h))
C[C@H](Nc1ncnc2ccc(C#N)cc12)c1nc2cccc(-c3cnc(N)nc3)c2c(=O)n1-c1ccccc1 [Example 2, (S)-4-((1-(5-(2-aminopyrimidin-5-yl)-4-oxo-3-phenyl-3,4-dihydroquinazolin-2-yl)ethyl)amino)quinazoline-6-carbonitrile]	117 nM	6710 nM	598 nM	4 nM
CCC[C@H](Nc1ncnc2ccc(C#N)cc12)c1nc2cccc(-c3cnc(OC)nc3)c2c(=O)n1-c1ccccc1 [Example 10, (S)-4-((1-(5-(2-methoxypyrimidin-5-yl)-4-oxo-3-phenyl-3,4-dihydroquinazolin-2-yl)butyl)amino)quinazoline-6-carbonitrile]	465 nM	7500 nM	3420 nM	17 nM
CCC[C@H](Nc1ncnc2ccc(C#N)cc12)c1nc2cccc(-c3cnc(OCC)nc3)c2c(=O)n1-c1ccccc1 [Example 11, (S)-4-((1-(5-(2-ethoxypyrimidin-5-yl)-4-oxo-3-phenyl-3,4-dihydroquinazolin-2-yl)butyl)amino)quinazoline-6-carbonitrile]	432 nM	8950 nM	4740 nM	16 nM
CCC[C@H](Nc1ncnc2ccc(C#N)cc12)c1nc2cccc(-c3cnc(N)nc3)c2c(=O)n1-c1ccccc1 [Example 12, (S)-4-((1-(5-(2-aminopyrimidin-5-yl)-4-oxo-3-phenyl-3,4-dihydroquinazolin-2-yl)butyl)amino)quinazoline-6-carbonitrile]	108 nM	3060 nM	621 nM	6 nM
C[C@H](Nc1ncnc2ccc(C#N)cc12)c1nc2cccc(-c3cncnc3)c2c(=O)n1C1CC1 [Example 17, (S)-4-((1-(3-cyclopropyl-4-oxo-5-(pyrimidin-5-yl)-3,4-dihydroquinazolin-2-yl)ethyl)amino)quinazoline-6-carbonitrile]	947 nM	3820 nM	2640 nM	10 nM
COc1ncc(-c2cccc3nc([C@H](C)Nc4ncnc5ccc(C#N)cc45)n(C4CC4)c(=O)c23)cn1 [Example 18, (S)-4-((1-(3-cyclopropyl-5-(2-methoxypyrimidin-5-yl)-4-oxo-3,4-dihydroquinazolin-2-yl)ethyl)amino)quinazoline-6-carbonitrile]	771 nM	5790 nM	2710 nM	19 nM
CCOc1ncc(-c2cccc3nc([C@H](C)Nc4ncnc5ccc(C#N)cc45)n(C4CC4)c(=O)c23)cn1 [Example 19, (S)-4-((1-(3-cyclopropyl-5-(2-ethoxypyrimidin-5-yl)-4-oxo-3,4-dihydroquinazolin-2-yl)ethyl)amino)quinazoline-6-carbonitrile]	593 nM	6730 nM	2020 nM	21 nM
CC[C@H](Nc1ncnc2ccc(C#N)cc12)c1nc2cccc(-c3cncnc3)c2c(=O)n1C1CC1 [Example 20, (S)-4-((1-(3-cyclopropyl-4-oxo-5-(pyrimidin-5-yl)-3,4-dihydroquinazolin-2-yl)propyl)amino)quinazoline-6-carbonitrile]	819 nM	8950 nM	2440 nM	15 nM
CC[C@H](Nc1ncnc2ccc(C#N)cc12)c1nc2cccc(-c3cnc(N)nc3)c2c(=O)n1C1CC1 [Example 21, (S)-4-((1-(5-(2-aminopyrimidin-5-yl)-3-cyclopropyl-4-oxo-3,4-dihydroquinazolin-2-yl)propyl)amino)quinazoline-6-carbonitrile]	371 nM	3730 nM	650 nM	13 nM
CC[C@H](Nc1ncnc2cccc(F)c12)c1nc2cccc(-c3cnc(N)nc3)c2c(=O)n1-c1ccccc1 [Example 25, (S)-5-(2-aminopyrimidin-5-yl)-2-(1-((5-fluoroquinazolin-4-yl)amino)propyl)-3-phenylquinazolin-4(3H)-one]	1230 nM	9590 nM	1460 nM	10 nM
CC(C)[C@H](Nc1ncnc2cccc(F)c12)c1nc2cccc(-c3cnc(N)nc3)c2c(=O)n1-c1ccccc1 [Example 29, (S)-5-(2-aminopyrimidin-5-yl)-2-(1-((5-fluoroquinazolin-4-yl)amino)-2-methylpropyl)-3-phenylquinazolin-4(3H)-one]	7610 nM	–	2010 nM	13 nM
O=c1c2c(-c3cncnc3)cccc2nc([C@@H](Nc2ncnc3cccc(F)c23)C2CC2)n1-c1ccccc1 [Example 30, (S)-2-(cyclopropyl((5-fluoroquinazolin-4-yl)amino)methyl)-3-phenyl-5-(pyrimidin-5-yl)quinazolin-4(3H)-one]	2640 nM	–	5300 nM	19 nM
Nc1ncc(-c2cccc3nc([C@@H](Nc4ncnc5cccc(F)c45)C4CC4)n(-c4ccccc4)c(=O)c23)cn1 [Example 31, (S)-5-(2-aminopyrimidin-5-yl)-2-(cyclopropyl((5-fluoroquinazolin-4-yl)amino)methyl)-3-phenylquinazolin-4(3H)-one]	442 nM	9310 nM	652 nM	3 nM
Cc1ncc(-c2cccc3cc([C@H](C)Nc4ncnc5ccc(C#N)cc45)n(-c4ccccc4)c(=O)c23)cn1 [Example 36, (S)-4-((1-(8-(2-methylpyrimidin-5-yl)-1-oxo-2-phenyl-1,2-dihydroisoquinolin-3-yl)ethyl)amino)quinazoline-6-carbonitrile]	86 nM	–	730 nM	5 nM
CC[C@H](Nc1ncnc2ccc(C#N)cc12)c1cc2cccc(-c3cncnc3)c2c(=O)n1-c1ccccc1 [Example 39, (S)-4-((1-(1-oxo-2-phenyl-8-(pyrimidin-5-yl)-1,2-dihydroisoquinolin-3-yl)propyl)amino)quinazoline-6-carbonitrile]	195 nM	–	712 nM	1 nM
CC[C@H](Nc1ncnc2ccc(C#N)cc12)c1cc2cccc(-c3cnc(OC)nc3)c2c(=O)n1-c1ccccc1 [Example 40, (S)-4-((1-(8-(2-methoxypyrimidin-5-yl)-1-oxo-2-phenyl-1,2-dihydroisoquinolin-3-yl)propyl)amino)quinazoline-6-carbonitrile]	237 nM	–	908 nM	2 nM
CC[C@H](Nc1ncnc2ccc(C#N)cc12)c1cc2cccc(-c3cnc(C)nc3)c2c(=O)n1-c1ccccc1 [Example 42, (S)-4-((1-(8-(2-methylpyrimidin-5-yl)-1-oxo-2-phenyl-1,2-dihydroisoquinolin-3-yl)propyl)amino)quinazoline-6-carbonitrile]	654 nM	–	1630 nM	1 nM
C[C@H](Nc1ncnc2cccc(F)c12)c1cc2cccc(-c3cnc(F)nc3)c2c(=O)n1-c1ccccc1 [Example 44, (S)-8-(2-fluoropyrimidin-5-yl)-3-(1-((5-fluoroquinazolin-4-yl)amino)ethyl)-2-phenylisoquinolin-1(2H)-one]	2010 nM	–	5630 nM	18 nM
